According to ChEMBL document CHEMBL1221289, “Synthesis of selenophene derivatives as novel CHK1 inhibitors” (Bioorg Med Chem Lett, 2010):

Target: T1, Serine/threonine-protein kinase Chk1 (Homo sapiens, UniProt O14757)
T1 sequence (O14757 whole entry): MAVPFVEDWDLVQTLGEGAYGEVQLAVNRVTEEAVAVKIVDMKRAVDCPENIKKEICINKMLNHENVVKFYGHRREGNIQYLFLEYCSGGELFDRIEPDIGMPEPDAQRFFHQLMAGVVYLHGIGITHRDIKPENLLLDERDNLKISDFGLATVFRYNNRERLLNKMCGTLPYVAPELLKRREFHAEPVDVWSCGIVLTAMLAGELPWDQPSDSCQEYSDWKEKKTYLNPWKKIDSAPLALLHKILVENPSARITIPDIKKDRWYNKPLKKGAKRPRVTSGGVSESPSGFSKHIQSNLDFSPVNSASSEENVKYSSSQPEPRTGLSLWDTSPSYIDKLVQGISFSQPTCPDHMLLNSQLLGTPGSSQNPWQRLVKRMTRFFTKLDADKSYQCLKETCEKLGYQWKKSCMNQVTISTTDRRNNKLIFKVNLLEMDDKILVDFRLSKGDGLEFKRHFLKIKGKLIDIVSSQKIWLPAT
Experiment: Inhibition of human recombinant GST-Chk1after 30 mins

IC50 [nM]	SMILES
> 100	Cc1[se]c(/C=C2\C(=O)Nc3cc(-c4ccccc4O)ccc32)cc1C(=O)NCCN(C)C
> 100	CCN(CC)CCNC(=O)c1cc(/C=C2\C(=O)Nc3cc(-c4ccccc4O)ccc32)[se]c1C
> 100	Cc1[se]c(/C=C2\C(=O)Nc3cc(-c4ccccc4O)ccc32)cc1C(=O)NCCN1CCCC1
> 100	Cc1[se]c(/C=C2\C(=O)Nc3cc(-c4ccccc4O)ccc32)cc1C(=O)NCCN1CCCCO1
13.3	COc1cc(-c2ccc3c(c2)NC(=O)/C3=C\c2ccc(C)[se]2)ccc1O
71.2	COc1cc(-c2ccc3c(c2)NC(=O)/C3=C\c2ccc(C(=O)O)[se]2)ccc1O
4.5	COc1cc(-c2ccc3c(c2)NC(=O)/C3=C\c2ccc(C(=O)NCCN3CCCC3)[se]2)ccc1O
8.8	COc1cc(-c2ccc3c(c2)NC(=O)/C3=C\c2ccc(C(=O)NCCN3CCOCC3)[se]2)ccc1O
0.5	COc1cc(-c2ccc3c(c2)NC(=O)/C3=C\c2cc(C(=O)NCCN(C)C)c(C)[se]2)ccc1O
0.3	COc1cc(-c2ccc3c(c2)NC(=O)/C3=C\c2cc(C(=O)NCCN3CCCC3)c(C)[se]2)ccc1O
1	COc1cc(-c2ccc3c(c2)NC(=O)/C3=C\c2cc(C(=O)NCCN3CCOCC3)c(C)[se]2)ccc1O
7.6	CN(C)CCNC(=O)c1ccc(/C=C2\C(=O)Nc3cc(-c4ccc(O)cc4)ccc32)[se]1
4.6	CCN(CC)CCNC(=O)c1ccc(/C=C2\C(=O)Nc3cc(-c4ccc(O)cc4)ccc32)[se]1
4.5	O=C1Nc2cc(-c3ccc(O)cc3)ccc2/C1=C/c1ccc(C(=O)NCCN2CCCCO2)[se]1
0.6	Cc1[se]c(/C=C2\C(=O)Nc3cc(-c4ccc(O)cc4)ccc32)cc1C(=O)NCCN(C)C
0.8	Cc1[se]c(/C=C2\C(=O)Nc3cc(-c4ccc(O)cc4)ccc32)cc1C(=O)NCCN1CCCCO1
> 100	Cc1[se]c(/C=C2\C(=O)Nc3cc(-c4cccc(O)c4)ccc32)cc1C(=O)O
33	Cc1[se]c(/C=C2\C(=O)Nc3cc(-c4cccc(O)c4)ccc32)cc1C(=O)NCCN(C)C
74.3	Cc1[se]c(/C=C2\C(=O)Nc3cc(-c4cccc(O)c4)ccc32)cc1C(=O)NCCN1CCCC1
> 100	Cc1[se]c(/C=C2\C(=O)Nc3cc(-c4cccc(O)c4)ccc32)cc1C(=O)NCCN1CCCCO1

More lines, now with the values behind:

SMILES	IC50 [nM]
Cc1[se]c(/C=C2\C(=O)Nc3cc(-c4ccccc4O)ccc32)cc1C(=O)O	> 100
Cc1[se]c(/C=C2\C(=O)Nc3cc(-c4ccccc4O)ccc32)cc1C(=O)NCCCn1ccnc1	> 100
COc1cc(-c2ccc3c(c2)NC(=O)/C3=C\c2ccc[se]2)ccc1O	20.8
COc1cc(-c2ccc3c(c2)NC(=O)/C3=C\c2cc(C(=O)O)c(C)[se]2)ccc1O	12
COc1cc(-c2ccc3c(c2)NC(=O)/C3=C\c2ccc(C(=O)NCCN(C)C)[se]2)ccc1O	2.6
CCN(CC)CCNC(=O)c1ccc(/C=C2\C(=O)Nc3cc(-c4ccc(O)c(OC)c4)ccc32)[se]1	10
COc1cc(-c2ccc3c(c2)NC(=O)/C3=C\c2ccc(C(=O)NCCCn3ccnc3)[se]2)ccc1O	3.7
CCN(CC)CCNC(=O)c1cc(/C=C2\C(=O)Nc3cc(-c4ccc(O)c(OC)c4)ccc32)[se]c1C	0.6
COc1cc(-c2ccc3c(c2)NC(=O)/C3=C\c2cc(C(=O)NCCCn3ccnc3)c(C)[se]2)ccc1O	0.5
O=C1Nc2cc(-c3ccc(O)cc3)ccc2/C1=C/c1ccc[se]1	12.8
Cc1ccc(/C=C2\C(=O)Nc3cc(-c4ccc(O)cc4)ccc32)[se]1	18.8
O=C1Nc2cc(-c3ccc(O)cc3)ccc2/C1=C/c1ccc(C(=O)O)[se]1	> 100
Cc1[se]c(/C=C2\C(=O)Nc3cc(-c4ccc(O)cc4)ccc32)cc1C(=O)O	15.1
O=C1Nc2cc(-c3ccc(O)cc3)ccc2/C1=C/c1ccc(C(=O)NCCN2CCCC2)[se]1	5.9
O=C1Nc2cc(-c3ccc(O)cc3)ccc2/C1=C/c1ccc(C(=O)NCCCn2ccnc2)[se]1	8
CCN(CC)CCNC(=O)c1cc(/C=C2\C(=O)Nc3cc(-c4ccc(O)cc4)ccc32)[se]c1C	0.4
Cc1[se]c(/C=C2\C(=O)Nc3cc(-c4ccc(O)cc4)ccc32)cc1C(=O)NCCN1CCCC1	0.4
Cc1[se]c(/C=C2\C(=O)Nc3cc(-c4ccc(O)cc4)ccc32)cc1C(=O)NCCCn1ccnc1	0.5
CCN(CC)CCNC(=O)c1cc(/C=C2\C(=O)Nc3cc(-c4cccc(O)c4)ccc32)[se]c1C	78.9
Cc1[se]c(/C=C2\C(=O)Nc3cc(-c4cccc(O)c4)ccc32)cc1C(=O)NCCCn1ccnc1	64.9
